Data: patent US20230064990A1, “DOSING REGIMENS AND METHODS FOR TREATING CANCER” (Panbela Therapeutics, Inc., priority 2020, published 2023)
“And” between values parts separate entries of the source, which are not always exact repeats. Equal values may be shown once. Read-outs that look alike come from different tables or passages of the source.

Experiments:
metastatic PDA = experiment: Phase 1a/1b study in combination with G and A, efficacy (RECIST, CA19-9); type: in vivo, human
Experimental: (§1) G (1000 mg/m^2) and A (125 mg/m^2) were administered intravenously on Days 1, 8, and 15 of each cycle. […] PK was evaluated on day 1 of cycle 1. Efficacy was assessed by CA19-9 levels, objective response was assessed by RECIST criteria, progression-free survival (PFS) and overall survival (OS).
(§2) This is a multicenter, open label, Phase 1a/1b study to evaluate to evaluate the safety, tolerability, pharmacokinetics and efficacy of (S,S)-(HO)2DEHSPM when administered in combination with G and A as first-line therapy in pancreatic cancer patients previously untreated for metastatic disease. The objective was to determine a recommended Phase 2 dose. Using a modified 3+3 dose escalation scheme, cohorts of subjects were dosed with subcutaneous injections of (S,S)-(HO)2DEHSPM at 0.2, 0.4 or 0.6 mg/kg days 1-5 of each 28-day cycle. Gemcitabine (1000 mg/m^2) and A (125 mg/m^2) were administered intravenously on Days 1, 8, and 15 of each cycle. […] PK was evaluated on day 1 of cycle 1. Efficacy was assessed by objective response rate (ORR) using RECIST criteria and by changes in CA19-9 levels. Subjects were treated until disease progression or the development of dose-limiting toxicity. Based upon initial safety findings and preliminary signals of efficacy, the protocol was amended to evaluate progression-free survival (PFS) and overall survival (OS) and expand the study to up to 36 subjects at the recommended Phase 2 dose. To date, 20 subjects were enrolled in cohorts 1-3 and evaluated for dose limiting toxicity and early signals of efficacy.

[1] = Phase 1a/1b study in combination with G and A, pharmacokinetics; type: in vivo, human; details: for Cmax / Tmax: human, plasma, subcutaneous
Experimental: as §1, §2

[2] = Repeat doses in healthy beagles; type: in vivo
Experimental: This effect on the exocrine pancreas in dogs (causing nearly complete ablation of the exocrine pancreas) was an unexpected finding in development of this polyamine analogue as a therapeutic agent. It occurred in a dose-dependent manner several weeks after drug dosing was discontinued in dogs. Beginning 5 to 6 weeks post last dose, the animals at the high-dose levels rapidly lost weight and their serum trypsin-like immunoreactivity decreased to <2.5 μg/L, which is diagnostic for exocrine pancreatic insufficiency in this species. In addition, fat absorption tests became abnormal and hepatic transaminase values increased. The pancreata of euthanized animals were grossly atrophied with diffuse moderate to severe pancreatic atrophy, especially of the acini. However, the islets appeared both histologically intact and functional based on serum glucose levels and oral glucose tolerance tests.

[3] = 4-week repeated dose toxicity study in rats; type: in vivo
Experimental: For the first-in-human (Phase 1a/1b) study, a starting dose of 0.05 mg/kg (1.8 mg/m^2) of (S,S)-(HO)2DEHSPM.4HCl was chosen as 1/10 the severely toxic dose (STD10) observed in a 4-week repeated dose toxicity study in rats (3 mg/kg/day; […]). This dose was chosen in accordance with the ICH S9 Guideline for the Nonclinical Development for Anti-Cancer Pharmaceuticals. For the Phase 1a/1b dosing schedule patients were administered up to 0.4 mg/kg/day Monday through Friday for 3 weeks for a total cumulative dose (TCD) of 6 mg/kg. In this animal experiment, one cycle consisted of 3 weeks of dosing and 5 weeks of rest for a total cycle length of 8 weeks.

clinical = details: human, in vivo
Experimental: Safety and tolerability were evaluated by clinical and laboratory assessments. PK was evaluated on Days 1 and 18 of cycle 1. Efficacy was assessed by RECIST criteria and overall survival.

[4] = Phase 1a/1b Cohort 4, shortened daily/periodic dosing regimen, liver toxicity; type: in vivo, human; details: Cohort 4 regimen vs reference dosing regimen, particularly Cohort 3
Experimental: As part of the same study described in Example 4, one cohort of patients (Cohort 4) was administered a combination shortened daily dosing regimen/periodic dosing regimen and liver toxicities were compared to the reference dosing regimen described in Example 4.
Cohort 4 was administered 0.4 mg/kg/day of (S,S)-(HO)2DEHSPM for 5 consecutive days (for a total of 5 doses/cycle) beginning on day 1 (i.e. days 1-5) of each of Cycles 1 and 2. Thereafter Cohort 4 was administered 0.4 mg/kg/day of (S,S)-(HO)2DEHSPM on Days 1, 8 and 15 beginning on day 1 of Cycle 3 (for a total of 3 doses per cycle) and continuing for each cycle thereafter. Cohort 4 patients were treated for 3 to 6 or more total cycles depending on the individual patient's tolerance of treatment.

[5] = system: human L3.6pl pancreatic cancer cells; experiment: Orthotopic implantation of L3.6pl pancreatic cancer cells into nude mice; details: for Median survival: control group 21 days
Experimental: These studies examined the anti-neoplastic effects of subcutaneous administration of (S,S)-(HO)2DEHSPM following orthotopic implantation of human L3.6pl pancreatic cancer cells into the pancreas of nude mice.
L3.6pl cells were injected into the pancreas of nude mice; treatment was initiated by group (n=10/group planned) 7-10 days later following establishment of tumors:
Study 1: saline (control), (S,S)-(HO)2DEHSPM (25 mg/kg), (S,S)-(HO)2DEHSPM (50 mg/kg), and (S,S)-(HO)2DEHSPM (100 mg/kg) daily (QD) for 4 to 6 weeks (wks).
Study 2: saline (control), (S,S)-(HO)2DEHSPM (25 mg/kg QD), (S,S)-(HO)2DEHSPM (25 mg/kg 3×/wk), (S,S)-(HO)2DEHSPM (15 mg/kg 3×/wk), and (S,S)-(HO)2DEHSPM (5 mg/kg 3×/wk) for 4 to 6 wks.
Study 3: saline (control), gemcitabine (GEM) (100 mg/kg 2×/wk, intraperitoneally), (S,S)-(HO)2DEHSPM (25 mg/kg 3×/wk), and (S,S)-(HO)2DEHSPM+GEM for 4 to 6 wks.

[6] = Cohorts 2 and 3, N=13 evaluable, with G and A
[7] = in combination with G+A, previously untreated metastatic PDA
[8] = interim, cohorts 2 and 3, with G and A
[9] = Study 3, compared with controls, GEM 100 mg/kg 2×/wk ip, (S,S)-(HO)2DEHSPM 25 mg/kg 3×/wk

SMILES: CCNCCC(O)CNCCCCNCC(O)CCNCC [(S,S)-(HO)2DEHSPM, (6S,15S)-3,8,13,18-teraazaicosane-6,15-diol]
- Best response PR, number of evaluable subjects (metastatic PDA; [6]): 8
- Best response PR, percent of evaluable subjects (metastatic PDA; [6]): 62%
- Best response SD, number of evaluable subjects (metastatic PDA; [6]): 5
- Best response SD, percent of evaluable subjects (metastatic PDA; [6]): 38%
- subjects with CA 19-9 maximum decrease greater than 60% (metastatic PDA; cohorts 2 and 3, N=16, with G and A): 69%
- DCR (metastatic PDA; [7]): 85%
- ORR (metastatic PDA; [7]): 62%
- CA19-9 levels decreased (metastatic PDA; interim, cohorts 2 and 3, 7 of 8 evaluable subjects, with G and A): 76-95%
- Stable disease (metastatic PDA; [8]): 1
- partial responses (metastatic PDA; [8]): 5 patients
- PK parameters ([1]; cohort 1 (0.2 mg/kg), day 1 of cycle 1): below the limits of detection at most time points
- Cmax ([1]; sc, Cohort 1 (0.2 mg/kg) N=4, day 1 of cycle 1, read-out: Cmax Mean): 26.6 ng/mL
- Cmax ([1]; sc, Cohort 2 (0.4 mg/kg) N=7, day 1 of cycle 1, read-out: Cmax Mean): 115 ng/mL
- Cmax ([1]; sc, Cohort 3 (0.6 mg/kg) N=5, day 1 of cycle 1, read-out: Cmax Mean): 147 ng/mL
- Tmax ([1]; Cohort 1 (0.2 mg/kg) N=4): 30 min
- Cmax ([1]; Cohort 1 (0.2 mg/kg) N=4, read-out: Cmax Range): 13.2 to 41.6 ng/mL
- Tmax ([1]; Cohort 2 (0.4 mg/kg) N=7): 30 min
- Cmax ([1]; Cohort 2 (0.4 mg/kg) N=7, read-out: Cmax Range): 77.1 to 167 ng/mL
- Tmax ([1]; Cohort 3 (0.6 mg/kg) N=5): 30 min
- Cmax ([1]; Cohort 3 (0.6 mg/kg) N=5, read-out: Cmax Range): 91.9 to 195 ng/mL
- effect on exocrine pancreas ([2]; cumulative exposure to repeat doses): exocrine pancreatic atrophy with exocrine pancreatic insufficiency without an inflammatory response and with preservation of islet cell function
- serum trypsin-like immunoreactivity ([2]; high-dose levels, beginning 5 to 6 weeks post last dose): < 2.5 µg/L
- severely toxic dose (STD10) [3]: 3 mg/kg/day
- MTD at 3 weeks (clinical): < 0.8 mg/kg and < 0.8 mg/kg/day
- severe liver toxicities compared to cohorts of Example 4 [4]: unexpectedly reduced or eliminated
- reduction in pancreas weight ([5]; Study 1, 25 mg/kg QD subcutaneous, 4 to 6 wks, tumor bearing mice): 82.9%
- toxicity / deaths ([5]; Study 1, 50 and 100 mg/kg QD): earlier deaths and proved to be toxic
- decreases in pancreas weight and tumor volume ([5]; Study 2, 5 mg/kg 3×/wk): no decreases were noted
- decrease in pancreas weight ([5]; Study 2, 15 mg/kg 3×/wk): 20.1%
- decrease in tumor volume ([5]; Study 2, 15 mg/kg 3×/wk): 52.6%
- reduction in pancreas weight ([5]; Study 2, 25 mg/kg 3×/wk): 47.8%
- reduction in tumor volume ([5]; Study 2, 25 mg/kg 3×/wk): 66.6%
- Median survival ([5]; Study 2, 25 mg/kg 3×/wk): 42 days
- reduction in pancreas weight ([5]; Study 2, 25 mg/kg QD): 72.7%
- reduction in tumor volume ([5]; Study 2, 25 mg/kg QD): 81.4%
- Median survival ([5]; Study 2, 25 mg/kg QD): 32 days
- decreases in body weight ([5]; Study 3, GEM 100 mg/kg 2×/wk ip, (S,S)-(HO)2DEHSPM 25 mg/kg 3×/wk, 4 to 6 wks): 35.6%
- decreases in pancreas weight [5, 9]: 58.8%
- decreases in tumor volume [5, 9]: 58.4%
